Data on 7 compounds can be found in patent US20250179047A1, “5-[7-(3,4-DIHYDRO-1H-ISOQUINOLINE-2-CARBONYL)-1,2,3,4 TETRAHYDROISOQUINOLIN-6-YL]-1H-PYRROLE-3-CARBOXAMIDE DERIVATIVES, PHARMACEUTICAL COMPOSITIONS CONTAINING THEM AND THEIR USES AS PRO-APOPTOTIC AGENTS” (LES LABORATOIRES SERVIER, priority 2022, published 2025).

The IC50 is the midpoint of a concentration-inhibition curve. Low readings indicate inhibition by little substance, high ones a need for much substance.

Experiment [1] deals with BCLXL WT (Homo sapiens (Human), UniProt Q07817). In words: TR-FRET competitive binding assay, BCLXL WT. The note with it: for Ki: BCLXL WT, Ki determined from IC50, read-out: TR_FRET EKI BclxL; for TR_FRET EKI BCLxL/WT selectivty ratio: ratio Ki BCLxL / Ki BCL2 WT. The method in brief: (§1)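 Terbium-labelled N-terminal Halo-fusion BCL2 or BCLXL (E. coli), 0.5 nM, competed against fluorescein-labelled PUMA peptide (2 or 20 nM) for 2 h at 23° C in 50 mM Hepes pH 7.5, 150 mM NaCl, 5% DMSO. TR-FRET 520/495 nm ratio gave IC50 by four-parameter fit; Ki derived from IC50.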
Sequence of BCLXL WT (Q07817 other isoform, or with tags, fused parts or gaps): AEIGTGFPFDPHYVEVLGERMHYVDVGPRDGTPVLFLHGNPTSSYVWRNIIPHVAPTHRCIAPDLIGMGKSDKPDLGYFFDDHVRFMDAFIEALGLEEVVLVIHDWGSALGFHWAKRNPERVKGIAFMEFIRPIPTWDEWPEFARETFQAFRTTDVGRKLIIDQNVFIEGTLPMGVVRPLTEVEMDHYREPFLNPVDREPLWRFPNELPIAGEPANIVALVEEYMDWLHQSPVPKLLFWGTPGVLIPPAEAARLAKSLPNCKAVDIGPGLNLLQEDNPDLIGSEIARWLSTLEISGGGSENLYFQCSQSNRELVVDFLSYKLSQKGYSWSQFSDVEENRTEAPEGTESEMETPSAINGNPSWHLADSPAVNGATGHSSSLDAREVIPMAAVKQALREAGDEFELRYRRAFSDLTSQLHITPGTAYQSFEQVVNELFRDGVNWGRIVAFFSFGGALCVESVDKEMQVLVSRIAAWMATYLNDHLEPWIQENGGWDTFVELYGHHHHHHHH

In experiment [2] the target is BCL2 D103Y (Homo sapiens, UniProt P10415, D103Y). In words: TR-FRET competitive binding assay, BCL2 D103Y. To be noted: Ki determined from IC50, read-out: TR_FRET EKI_Bcl2 D103Y. An outline of the steps:
as §1
Background: TR-FRET usually uses a lanthanide donor and a delayed reading to cut background.

Experiment [3] relates to KMS-12-PE Bcl-2 G101V. In words: In vitro cytotoxicity CellTiter-Glo 48 h, KMS-12-PE Bcl-2 G101V. The experiment is classed as cell-based. To be noted: for Ratio (G101V/WT): C50 KMS-12-PE Bcl-2 G101V over C50 KMS-12-PE Bcl-2 WT; for IC50: Homo sapiens, KMS-12-PE, 48 h, CellTiter-Glo, C50 = concentration needed to reach 50% of the cellular viability. An outline of the steps:
(§2)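 Transduce KMS-12-PE with Bcl-2 WT or G101V lentivirus, then FACS-sort RFP-positive cells. Add compounds in an 11-point dilution series and incubate 48 h at 37 °C. Measure ATP-based luminescence with CellTiter-Glo and derive C50 (50% viability).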
(In general: In ATP-based viability assays light output follows the ATP content of the culture.)

Experiment [4] deals with BCL2 WT (Homo sapiens (Human), UniProt P10415). In words: TR-FRET competitive binding assay, BCL2 WT. To be noted: Ki determined from IC50, read-out: TR_FRET EKI_Bcl2 WT. An outline of the steps:
as §1

For experiment [5], the system named is KMS-12-PE Bcl-2 WT. Kind of experiment: In vitro cytotoxicity CellTiter-Glo 48 h, KMS-12-PE Bcl-2 WT. The experiment is classed as cell-based. To be noted: Homo sapiens, KMS-12-PE, C50 = concentration needed to reach 50% of the cellular viability. The method in brief: as §2
The target in experiment [6] is BCL2 D111A (Homo sapiens, UniProt P10415, D111A). In words: TR-FRET competitive binding assay, BCL2 D111A. The note with it: Ki determined from IC50, read-out: TR_FRET EKI_Bcl2 D111A. The method in brief: as §1
The target in experiment [7] is BCL2 F104I (Homo sapiens, UniProt P10415, F104I). Kind of experiment: TR-FRET competitive binding assay, BCL2 F104I. The note with it: Ki determined from IC50, read-out: TR_FRET EKI_Bcl2 F104I. The method in brief: as §1
For experiment [8], the system named is BCL2 G101V. In words: TR-FRET competitive binding assay, BCL2 G101V. Also on record: species or system human. To be noted: ratio Ki BCL2 G101V / Ki BCL2 WT. An outline of the steps: as §1
Experiment [9] has as its target BCL2 G101V (Homo sapiens, UniProt P10415, G101V). In words: TR-FRET competitive binding assay, BCL2 G101V. To be noted: BCL2 G101V; Ki determined from IC50; read-out: TR_FRET EKI_Bcl2 G101V. An outline of the steps: as §1

Each structure is given as a SMILES string.

Regarding `Cc1c(N(C(=O)c2cc(-c3cc4c(cc3C(=O)N3Cc5ccccc5C[C@H]3CN3CCCCC3)CN(C(=O)Cc3ccc(OCCN5CCN(CCF)CC5)cc3F)CC4)n(C)c2C)c2ccc(O)cc2)cc(C#N)n1C` [Example 117, N-(5-cyano-1,2-dimethyl-1H-pyrrol-3-yl)-5-{2-[2-(2-fluoro-4-{2-[4-(2-fluoroethyl)piperazin-1-yl]ethoxy}phenyl)acetyl]-7-[(3S)-3-[(piperidin-1-yl)methyl]-1,2,3,4-tetrahydroisoquinoline-2-carbonyl]-1,2,3,4-tetrahydroisoquinolin-6-yl}-N-(4-hydroxyphenyl)-1,2-dimethyl-1H-pyrrole-3-carboxamide], the Ki in [1] was found to be 1.7 nM; in [2] it was 0.11 nM; in [4], 0.05 nM; in experiment [6] it was 0.11 nM; in experiment [7] it was 0.18 nM; in experiment [9], 0.3 nM. Moreover, in experiment [1], the “TR_FRET EKI BCLxL/WT selectivty ratio” value came to 36.2. For the same compound, the “Ratio (G101V/WT)” value in experiment [3] is recorded as 4.09. Further, the half-maximal inhibitory concentration (IC50) in [3] came to 0.033 µM; in [5] it was 0.0081 µM. In [8], the “TR_FRET EKI G101V/WT selectivty ratio” value is 5.3.

With `Cc1c(N(C(=O)c2cc(-c3cc4c(cc3C(=O)N3Cc5ccccc5C[C@H]3C)CN(C(=O)Cc3ccc(N5CCC(N6CCOCC6)C5)cc3)CC4)n(C)c2C)c2ccc(O)cc2)cc(C#N)n1C` (single isomer, unassigned) [Example 63, N-(5-cyano-1,2-dimethyl-1H-pyrrol-3-yl)-N-(4-hydroxyphenyl)-1,2-dimethyl-5-{7-[(3R)-3-methyl-1,2,3,4-tetrahydroisoquinoline-2-carbonyl]-2-(2-{4-[(3R or S)-3-(morpholin-4-yl)pyrrolidin-1-yl]phenyl}acetyl)-1,2,3,4-tetrahydroisoquinolin-6-yl}-1H-pyrrole-3-carboxamide], the Ki in experiment [1] was found to be 1.7 nM; in experiment [2], 0.46 nM; in experiment [4], 0.11 nM; in [6] it was 0.42 nM; in [7], 2.84 nM; in [9], 0.9 nM. The “TR_FRET EKI BCLxL/WT selectivty ratio” value in experiment [1] was determined as 15.5. Also, the “Ratio (G101V/WT)” value in [3] stood at 5.84. In addition, the results for the IC50 in experiment [3] and in experiment [5] were 0.046 µM and 0.0079 µM, respectively. In addition, the “TR_FRET EKI G101V/WT selectivty ratio” value in experiment [8] was found to be 7.8.

For the compound `Cc1c(N(C(=O)c2cc(-c3cc4c(cc3C(=O)N3Cc5ccccc5C[C@H]3CN3CCC5(CC3)CC5)CN(C(=O)Cc3ccc(OCCN5CCOCC5)cc3F)CC4)n(C)c2C)c2ccc(O)cc2)cc(C#N)n1C` [Example 126, 5-{7-[(3S)-3-({6-azaspiro[2.5]octan-6-yl}methyl)-1,2,3,4-tetrahydroisoquinoline-2-carbonyl]-2-(2-{2-fluoro-4-[2-(morpholin-4-yl)ethoxy]phenyl}acetyl)-1,2,3,4-tetrahydroisoquinolin-6-yl}-N-(5-cyano-1,2-dimethyl-1H-pyrrol-3-yl)-N-(4-hydroxyphenyl)-1,2-dimethyl-1H-pyrrole-3-carboxamide], the Ki in experiment [1] worked out at 7.7 nM; in experiment [2], 0.37 nM; in experiment [4], 0.12 nM; in [6], 0.38 nM; in [7], 0.49 nM; in experiment [9] it was 0.7 nM. Also, the “TR_FRET EKI BCLxL/WT selectivty ratio” value in [1] stood at 64.2. Besides, in experiment [3], the “Ratio (G101V/WT)” value is 6.34. The results for the half-inhibitory concentration (IC50) in experiment [3] and in experiment [5] were 0.0303 µM and 0.0048 µM, respectively. For the same compound, in [8], the “TR_FRET EKI G101V/WT selectivty ratio” value is on record as 5.4.

Consider `Cc1c(N(C(=O)c2cc(-c3cc4c(cc3C(=O)N3Cc5ccccc5C[C@H]3CN3CCCCC3)CN(C(=O)Cc3ccc(OCCN5CCC(F)CC5)cc3F)CC4)n(C)c2C)c2ccc(O)cc2)cc(C#N)n1C` [Example 115, N-(5-cyano-1,2-dimethyl-1H-pyrrol-3-yl)-5-[2-(2-{2-fluoro-4-[2-(4-fluoropiperidin-1-yl)ethoxy]phenyl}acetyl)-7-[(3S)-3-[(piperidin-1-yl)methyl]-1,2,3,4-tetrahydroisoquinoline-2-carbonyl]-1,2,3,4-tetrahydroisoquinolin-6-yl]-N-(4-hydroxyphenyl)-1,2-dimethyl-1H-pyrrole-3-carboxamide], for which the Ki in [1] was determined as 2.8 nM; in experiment [2] it was 0.08 nM; in experiment [4], 0.03 nM; in [6] it was 0.17 nM; in experiment [7], 0.3 nM; in experiment [9], 0.2 nM. In experiment [1], the “TR_FRET EKI BCLxL/WT selectivty ratio” value is 100.0. In addition, the “Ratio (G101V/WT)” value in experiment [3] is listed as 6.05. For the same compound, the IC50 in experiment [3] stood at 0.0458 µM; in experiment [5] it was 0.0072 µM. Further, the “TR_FRET EKI G101V/WT selectivty ratio” value in experiment [8] was 5.6.

With `Cc1c(C(=O)N(c2ccc(O)cc2)c2cc(C#N)n(C3CC3)c2C)cc(-c2cc3c(cc2C(=O)N2Cc4ccccc4C[C@H]2C)CN(C(=O)Cc2ccc(OCCN4CCOCC4)cc2)CC3)n1C` [Example 71, N-(5-cyano-1-cyclopropyl-2-methyl-pyrrol-3-yl)-N-(4-hydroxyphenyl)-1,2-dimethyl-5-[7-[(3R)-3-methyl-3,4-dihydro-1H-isoquinoline-2-carbonyl]-2-[2-[4-(2-morpholinoethoxy)phenyl]acetyl]-3,4-dihydro-1H-isoquinolin-6-yl]pyrrole-3-carboxamide], the Ki came out at 1.6 nM in experiment [1]; 0.68 nM in experiment [2]; 0.15 nM in experiment [4]; 0.31 nM in experiment [6]; 1.02 nM in experiment [7]; 1.2 nM in [9]. The “TR_FRET EKI BCLxL/WT selectivty ratio” value in experiment [1] was 10.7. Further, the “Ratio (G101V/WT)” value in experiment [3] came to 3.88. In addition, the results for the IC50 in experiment [3] and in experiment [5] were 0.0356 µM and 0.0092 µM, respectively. Moreover, in experiment [8], the “TR_FRET EKI G101V/WT selectivty ratio” value is listed as 8.0.

Take `COc1ncc(N(C(=O)c2cc(-c3cc4c(cc3C(=O)N3Cc5ccccc5C[C@H]3C)CN(C(=O)Cc3ccc(OCCN5CCOCC5)cc3)CC4)n(C)c2C)c2ccc(O)cc2)cc1F` [Example 72, N-(5-fluoro-6-methoxypyridin-3-yl)-N-(4-hydroxyphenyl)-1,2-dimethyl-5-(7-{[(3R)-3-methyl-3,4-dihydro-1H-isoquinolin-2-yl]carbonyl}-2-(2-{4-[2-(morpholin-4-yl)ethoxy]phenyl}acetyl)-3,4-dihydro-1H-isoquinolin-6-yl)pyrrole-3-carboxamide]: the Ki in experiment [1] worked out at 3.7 nM; in [2] it was 0.37 nM; in experiment [4] it was 0.14 nM; in [6], 0.21 nM; in [7], 1.17 nM; in experiment [9] it was 0.9 nM. In addition, the “TR_FRET EKI BCLxL/WT selectivty ratio” value in [1] stood at 26.4. The “Ratio (G101V/WT)” value in [3] turned out to be 6.42. For the same compound, the concentration for half-maximal inhibition (IC50) in [3] turned out to be 0.0427 µM; in [5], 0.0066 µM. Also, the “TR_FRET EKI G101V/WT selectivty ratio” value in [8] stood at 6.1.

With `Cc1c(N(C(=O)c2cc(-c3cc4c(cc3C(=O)N3Cc5ccccc5C[C@H]3C)CN(C(=O)Cc3ccc(C5CCN(CC(F)F)CC5)cc3F)CC4)n(C)c2C)c2ccc(O)cc2)cc(C#N)n1C` [Example 48, N-(5-cyano-1,2-dimethylpyrrol-3-yl)-5-[2-(2-{4-[1-(2,2-difluoroethyl)piperidin-4-yl]-2-fluorophenyl}acetyl)-7-{[(3R)-3-methyl-3,4-dihydro-1H-isoquinolin-2-yl]carbonyl}-3,4-dihydro-1H-isoquinolin-6-yl]-N-(4-hydroxyphenyl)-1,2-dimethylpyrrole-3-carboxamide], the Ki amounted to 9.4 nM in [1]; 0.79 nM in experiment [2]; 0.5 nM in experiment [4]; 1.63 nM in experiment [6]; 10.2 nM in experiment [7]; 1.3 nM in experiment [9]. Also, the “TR_FRET EKI BCLxL/WT selectivty ratio” value in [1] is on record as 18.8. The “Ratio (G101V/WT)” value in experiment [3] came to 6.44. Further, the 50% inhibitory concentration (IC50) in [3] is 0.0268 µM; in experiment [5], 0.0048 µM. The “TR_FRET EKI G101V/WT selectivty ratio” value in experiment [8] is recorded as 2.6.
